Experiments:
[1] = system: cell trafficking to the lung (BAL cells); assay: In vivo cell trafficking to the lung of naïve mice after intranasal treatment; parameters: species or system BALB/c mice; settings: for Percentage of cells from BAL determined by flow cytometry: B220 / Percentage of cells from BAL determined by flow cytometry: CD4 / Percentage of cells from BAL determined by flow cytometry: CD8 / Percentage of cells from BAL determined by flow cytometry: CD11b / Percentage of cells from BAL determined by flow cytometry: DX5 / Percentage of cells from BAL determined by flow cytometry: RB6-8C5 / Percentage of cells from BAL determined by H&E stain: Eosinophil / Percentage of cells from BAL determined by H&E stain: Lymphocyte / Percentage of cells from BAL determined by H&E stain: Macrophage / Percentage of cells from BAL determined by H&E stain: PMN: day 2 post-treatment; for Percentage of cells from BAL determined by flow cytometry: B220 / Percentage of cells from BAL determined by flow cytometry: CD4 / Percentage of cells from BAL determined by flow cytometry: CD8: lymphocyte gate; for Percentage of cells from BAL determined by flow cytometry: CD11b / Percentage of cells from BAL determined by flow cytometry: DX5 / Percentage of cells from BAL determined by flow cytometry: RB6-8C5: ungated events; for Percentage of cells from BAL determined by H&E stain: Eosinophil / Percentage of cells from BAL determined by H&E stain: Lymphocyte / Percentage of cells from BAL determined by H&E stain: Macrophage / Percentage of cells from BAL determined by H&E stain: PMN / mean BAL cell numbers (±SEM) recovered: naïve BALB/c mice; for Percentage of cells from BAL determined by H&E stain: Eosinophil / Percentage of cells from BAL determined by H&E stain: Lymphocyte / Percentage of cells from BAL determined by H&E stain: Macrophage / Percentage of cells from BAL determined by H&E stain: PMN: i.n. 1 μM, median ± SE; for mean BAL cell numbers (±SEM) recovered: intranasal 1 μM, 48 hours post-treatment
Experimental: FIG. 5A is a bar graph showing leukocyte chemotaxis toward G glycoprotein or fractalkine (Fkn) in the presence or absence of anti-CX3CR1 antibody or normal rabbit sera. The chemotactic index determined from the fold increase of murine leukocyte migration toward the chemoattractant (e.g., Fkn or G glycoprotein) over the leukocyte migration toward the media alone control using modified Boyden chambers. Fkn, G glycoprotein, […] (10 μg) or normal rabbit sera (10 μg) was added to the upper chamber to examine antagonism of cell migration toward the chemoattractant in the lower chamber. FIG. 5B is a bar graph showing cell trafficking to the lung of naïve BALB/c mice intranasally treated with G glycoprotein, fractalkine or G glycoprotein peptides RT32, RT33 or RT34. BAL cells were fixed and stained with H&E. Cell subsets were determined as a percentage of the total BAL cells counted from >200 cells/slide counting two slides for each experiment. The percent cell type represents the median±SE from three separate experiments. * indicates significant difference compared to tissue culture media alone (p<0.05). Naïve BALB/c mice were i.n. treated with 1 μM G glycoprotein or fractalkine or with 1 μM G glycoprotein peptides. The BAL was collected 2 days post-treatment for analysis.
Cell trafficking to the lung in naïve and FI-RSV-immune BALB/c mice was examined following intranasal treatment with either 1 μM fractalkine, RSV G glycoprotein or RSV G peptides. All mice were females purchased from Harlan Sprague Dawley (Indianapolis, Ind.) and maintained at the Centers for Disease Control and Prevention in Atlanta, Ga. FI-RSV-immune mice were immunized in the superficial gluteal muscle using 10^6 pfu equivalents of FI-RSV in accordance with methods known to those skilled in the art. Mice were anesthetized with 2,2,2,-tribromoethanol and intranasally treated with 0.05 ml of either fractalkine, RSV G glycoprotein or peptide diluted in PBS (GIBCO). At day two post-treatment, the mice were anesthetized, exsanguinated by severing the right caudal artery, and the bronchoalveolar (BAL) cells collected in PBS containing 1% BSA (Sigma). BAL cells were blocked with 10% normal mouse sera (Jackson Laboratories, Bar Harbor, Me.) in PBS, and then stained with the appropriate combinations of FITC- or PE-labeled anti-CD3 (145-2C11), anti-CD4 (GK1.5), anti-CD8 (53-6.7), anti-CD11b (M1/70), anti-CD45R/B220 (RA3-6B2), anti-pan NK cell (DX5), anti-neutrophil (RB6-8C5), and mouse isotype Ab controls (all from PharMingen, San Diego, Calif.). The distribution of cell surface markers was determined in two-color mode on a FACScan with CellQUEST software (Becton-Dickinson, Mountain View, Calif.).

[2] = system: human peripheral blood mononuclear cells; assay: Human PBMC chemotaxis and CX3CR1 expression in modified Boyden chamber; assay type: cell-based; settings: for Chemotactic Indices / CX3CR1 Expression (%) Lower / CX3CR1 Expression (%) Upper: 6 h
Experimental: Leukocyte chemotaxis toward Fkn, G glycoprotein or media was measured according to Boyden^46 using 24 well plates (Costar, Cambridge, Mass.) with 3 μm filter inserts (Nalge Nunc, Rochester, N.Y.) coated with an extracellular matrix consisting primarily of laminin, collagen IV and proteoglycan (ECM, Sigma, St. Louis, Mo.). For murine studies, 5×10^5 naïve spleen cells was placed in the upper chamber and 10 nM mouse Fkn or 10 nM G glycoprotein, anti-CX3CR1 antibody, anti-G or anti-F glycoprotein monoclonal antibody, normal rabbit sera, rabbit anti-CCR5 sera or media was placed in the upper or lower chamber as appropriate. For human studies, 10^6 density gradient purified (Lymphocyte Separation Media, ICN Biomedicals, Aurora, Ohio, per manufacture instructions) peripheral blood mononuclear cells (PBMC) from normal human adult donors was placed in the upper chamber in the presence or absence of 1 μM peptide RT33, and 10 nM human Fkn, 10 nM G glycoprotein or 1 μM peptide RT33 placed in the lower chambers. The modified Boyden chamber was incubated at 37° C. for 4-6 h, the inserts removed, washed in PBS (GIBCO BRL), fixed in 3% gluteraldehyde and stained in formalin-buffered 0.01% crystal violet. Chemotactic cells were visualized with a microscope. Chemotactic cells were analyzed for CX3CR1 expression by collecting cells from the upper or lower modified Boyden chambers, antibody staining (2A9-1) and flow cytometry as described. Leucocytes chemotactic toward G or Fkn expressed a higher percent of CX3CR1 in the lower (25-30%) versus upper chamber (7-11%).
Leukocyte chemotaxis and percent positive CX3CR1 expression on human PBMC after a 6 h chemotaxis assay were determined. The percentage of cells positive for CX3CR1 in both upper and lower modified Boyden chambers are shown. Chemotactic indices were determined from the fold increase of leukocyte migration toward the chemoattractant, i.e. Fkn, G glycoprotein or peptide RT33, over the leukocyte migration toward media alone. TCM=tissue culture media.

[3] = system: RSV; assay: RSV plaque reduction by small molecule peptide inhibitors on Vero cells (Example II); assay type: cell-based, RSV/A2; settings: peptide added to heparin 5 μg/ml; in words
Experimental: Vero cells were treated with PBS, RT33, RT34, Δ+1, Δ−1 and EYp1 peptides (100 μm) in the presence (B) or absence of heparin (A) (5 μg/ml). Percentage inhibition was determined by dividing the mean plaque forming units (PFU) of treated Vero cells by the mean PFU of PBS-treated Vero cells.
Different concentrations of the G glycoprotein peptides and/or 5 μg/ml heparin (Sigma) were diluted in Dulbecco's phosphate buffered saline (D-PBS; GIBCO) and added to Vero cell monolayers for 1 h at 37° C. Pre-treated Vero cells were infected with 10^6 PFU of RSV/A2 diluted in serum-free DMEM (GIBCO) for 2 h at 37° C., after which DMEM (GIBCO) containing 10% FBS (Hyclone, Logan, Utah) was added, and the infected cells incubated at 37° C. for 3-4 days. Plaques were enumerated by immunostaining with monoclonal antibodies against the G and F glycoproteins (130-2G and 131-2A, respectively), as described (54,55).

[4] = TCM in upper chamber, substance in lower chamber (10 nM G or Fkn, 1 μM RT33)
[5] = TCM in upper chamber, substance in lower chamber
[6] = 1 μM RT33 in upper chamber, Fkn in lower chamber
[7] = 1 μM RT33 in upper chamber, G glycoprotein in lower chamber

Row | Molecule | Percentage of cells from BAL determined by flow cytometry: B220 [1] | Percentage of cells from BAL determined by flow cytometry: CD4 [1] | Percentage of cells from BAL determined by flow cytometry: CD8 [1] | Percentage of cells from BAL determined by flow cytometry: CD11b [1] | Percentage of cells from BAL determined by flow cytometry: DX5 [1] | Percentage of cells from BAL determined by flow cytometry: RB6-8C5 [1] | Percentage of cells from BAL determined by H&E stain: Eosinophil [1] | Percentage of cells from BAL determined by H&E stain: Lymphocyte [1] | Percentage of cells from BAL determined by H&E stain: Macrophage [1] | Percentage of cells from BAL determined by H&E stain: PMN [1] | mean BAL cell numbers (±SEM) recovered [1] | Chemotactic Indices [2, 4] | CX3CR1 Expression (%) Lower [2, 5] | CX3CR1 Expression (%) Upper [2, 5] | effect of adding peptide to heparin on plaque reduction [3] | further results
1 | Fkn: CX3C chemokine fractalkine (R&D), ligand of CX3CR1 [reference compound] | 6 ± 2% | 16 ± 4% | 6 ± 2% | 12 ± 4% | 17 ± 8% | 10 ± 6% | 0 ± 0% | 10 ± 3% | 71 ± 10% | 16 ± 5% | 3.8 (±0.6) ×10^5 cells/ml | 3.2-3.7 | 26-30% | 7-8% |  | 
2 | NKKPGKKTTTKP [RT34] | 4 ± 2% | 6 ± 2% | 3 ± 3% | 3 ± 1% | 6 ± 2% | 6 ± 4% | 0 ± 0% | 8 ± 2% | 86 ± 8% | 8 ± 3% | 2.8 (±0.2) ×10^5 cells/ml |  |  |  | no effect above heparin treatment alone | 
3 | TCWACKRIPNK (TCWAIACKRIPNK) [Δ − 1] |  |  |  |  |  |  |  |  |  |  |  |  |  |  | no effect above heparin treatment alone | 
4 | TCWAIACKRIPNK [Δ + 1] |  |  |  |  |  |  |  |  |  |  |  |  |  |  | no effect above heparin treatment alone | 
5 | TCWAICKRIPNK [RT33] | 4 ± 2% | 10 ± 2% | 4 ± 2% | 10 ± 4% | 10 ± 2% | 12 ± 2% | 0 ± 0% | 4 ± 2% | 76 ± 8% | 16 ± 6% | 3.5 (±0.3) ×10^5 cells/ml | 1.6-2.2 | 16-18% | 11-16% |  | CX3CR1 Expression (%) Lower [2, 6]: 6-14%; CX3CR1 Expression (%) Upper [2, 6]: 16-21%; Chemotactic Indices [2, 6]: 1.8-2.2; CX3CR1 Expression (%) Lower [2, 7]: 9-14%; CX3CR1 Expression (%) Upper [2, 7]: 16-18%; Chemotactic Indices [2, 7]: 1.5-2.0; effect on chemotaxis toward G glycoprotein and Fkn ([2]; peptide added to upper Boyden chamber, in words): reduced chemotaxis toward both G glycoprotein and Fkn
6 | VPCSICSNNPTC [RT32] | 3 ± 2% | 2 ± 2% | 2 ± 2% | 3 ± 2% | 2 ± 1% | 2 ± 2% | 0 ± 0% | 12 ± 4% | 94 ± 5% | 2 ± 2% | 2.2 (±0.5) ×10^5 cells/ml |  |  |  |  | 
7 | G glycoprotein: purified G glycoprotein isolated from RSV/A2-infected Vero cells (protein) MSKNKDQRTAKTLERTWDTLNHLLFISSCLYKLNLKSVAQITLSILAMIISTSLIIAAIIFIASANHKVTPTTAIIQDATSQIKNTTPTYLTQNPQLGISPSNPSEITSQITTILASTTPGVKSTLQSTTVKTKNTTTTQTQPSKPTTKQRQNKPPSKPNNDFHFEVFNFVPCSICSNNPTCWAICKRIPNKKPGKKTTTKPTKKPTLKTTKKDPKPQTTKSKEVPTTKPTEEPTINTTKTNIITTLLTSNTTGNPELTSQMETFHSTSSEGNPSPSQVSTTSEYPSQPSSPPNTPRQ | 5 ± 4% | 8 ± 2% | 4 ± 3% | 12 ± 5% | 9 ± 6% | 10 ± 4% | 0 ± 0% | 10 ± 3% | 68 ± 10% | 22 ± 4% | 4.6 (±1.1) ×10^5 cells/ml | 3.0-3.6 | 25-30% | 8-11% |  | 

From patent publication US8173131B2, “Compositions and methods for modulating RSV infection and immunity” (PerkinElmer Health Sciences, Inc., priority 2000, dated 2012)
